Results from US20260027073A1, “USE OF SMALL-MOLECULE COMPOUND HAVING NAPHTHYLAMINE STRUCTURE” (HANGZHOU PHECDAMED CO., LTD., priority 2023, published 2026).

Assays:
UUO model mice = assay: UUO-induced renal fibrosis; format: in vivo
Description: The UUO model is currently the most widely used experimental animal model for studying renal tubulointerstitial fibrosis. By ligating a unilateral ureter to cause obstruction of the renal drainage system, leading to acute alterations in renal function and chronic damage to renal structure, it simulates renal interstitial injury caused by ureteral obstruction, which is common in clinical practice. The modeling was performed as follows: • (1) On the first day of the test, mice were given 50 mg/kg sodium pentobarbital anesthesia, after confirming that the mice were under anesthesia and preparing and disinfecting the skin, an incision of about 1 cm at 1 cm left and below of the costovertebral angle was made, the left side of the kidney was fully exposed and the ureter was sought downward along the renal hilum, and the ureter was ligated with a 6-0 nylon thread, and after ligation, the muscle and the skin layers were sutured layer by layer. In the sham group, only the kidney was exposed, but it was not ligated, and sutured directly. The experiments were divided into a sham group (Sham, oral gavage of vehicle), a model control group (vehicle, oral gavage of vehicle), a TJ01-013 10 mg/kg treatment group ([…]), and the vehicle used is 0.5% CMC-Na, administered at a dose of 10 ml/kg, and the frequency of administration was once a day. The drug was administered continuously for 7 days after UUO surgery, at the endpoint of the test, immediately after the mice were put to death, saline was perfused through the heart until the blood in the kidneys was completely drained and the kidneys were transformed from a dark red color to khaki. The operated kidney on the side was collected, the kidney was cut through the short axis of the kidney, and the kidney tissue samples were stored separately according to the requirements of the test. • (2) Renal histopathology
Kidney tissues were fixed with 4% paraformaldehyde for 48 hours, paraffin-embedded, sectioned at a thickness of 4 μm, and Masson stained. Specific experimental procedures were performed as described previously, and after sectioning and scanning the images, the results were analyzed semi-quantitatively using Image J software.
Total RNA was extracted from kidney tissue samples by Tissue RNA Rapid Extraction Kit, and the concentration and purity of RNA were determined by micro-ultraviolet spectrophotometer, and then operated according to the instruction steps of HiScript® II 1st Strand cDNA Synthesis Kit, the cDNA was reversely transcribed with 1 μg of total amount of […], followed by a 15 ul amplification system, with 5 μL of cDNA, 7.5 μL of 2×SYBR Premix Ex Taq™, 0.3 μL of each of forward and reverse primers, and the rest was supplemented with double-distilled water. The conditions of the Bio-Rad reaction were 95° C. for 5 min, denaturation at 95° C. for 10 seconds, annealing/extension at 60° C. for 30 seconds for 40 cycles, and 65° C. for 15 min. The expression of the target gene was calculated by 2-ΔΔCt relative quantification. The Ct value of the target gene was first corrected by the internal reference gene (β-actin), and then compared with the control group to derive the relative expression level. […]

[1] = tested on: LPS-induced sepsis in mice; assay: LPS-induced sepsis survival; format: in vivo, C57 mice; settings: 8th day; 10 mg/kg intraperitoneal once a day; LPS alone about 20%; FIG. 33
Description: A constructed preclinical sepsis model is a LPS-induced sepsis in mice. Injection of purified LPS into mice by intraperitoneal route or intravenous route can lead to activation of the innate immune system and simulate fulminant Gram-negative bacterial infections, the specific modeling method is as follows: 20-25 g C57 mice were selected, and 20 mg/kg LPS was injected intraperitoneally according to the body weight (the LPS was dissolved with PBS), and the experiment was divided into three groups, a model control group (LPS), a positive control treatment group (prednisone, 10 mg/kg), TJ01-013 treatment group (TJ01-013, 10 mg/kg), the mode of administration was intraperitoneal injection, the volume of administration was 5 ml/kg, the frequency of administration was once a day, and the biological deaths and changes in body weights of the mice were observed and recorded every day, and the mice were regarded as physiologically dead if their body weights decreased by 20% or more compared with that before the administration of LPS. Survival curves were plotted based on deaths observed up to 8 days after administration.

[2] = tested on: mouse bone marrow mesenchymal stem cells; assay: Senescence of mouse bone marrow mesenchymal stem cells by passaging; format: cell-based; settings: 10 μM
Description: Extraction of bone marrow mesenchymal stem cells: C57 mice weighing about 25 g were selected, and after anesthesia with 30 mg/kg chloral hydrate, the femur and tibia were removed and put into a Petri dish, one end of the femur and tibia were cut off to fully expose the bone marrow cavity, and a 1 ml syringe was used to extract the DMEM/F12 medium, and the tip of the needle was pricked into the bone marrow cavity to rinse the bone marrow, and a 15 ml centrifuge tube was connected underneath to make the rinsed liquid flow into the centrifuge tube, and the rinsing was repeated several times until the bone marrow cavity was rinsed clean. The rinsed suspension was blown repeatedly with a pipette to make the cells in the rinsed liquid as single-cell as possible, and the supernatant was transferred to another tube after standing still for a few minutes, and the cell suspension was continued to blow to make the cells well dispersed. The obtained cell suspension was centrifuged at 1000 rpm for 5 min, and after removing the residual supernatant, 1 ml of DMEM/F12 medium was added, and after repeated blowing, the CD45-Sca-1+PDGFRα+high-purity primary mouse bMSC cell line was sorted out by flow cytometric sorting, and the sorted cells were dispensed into culture flasks. The cells were observed under the microscope and placed in the incubator at 37° C., 5% CO2 to incubate, and the solution was replaced for 72 h, the drug administration treatment was performed at the first passaging, and then 10 μM TJ01-013 was given to each passaging thereafter, labeled as Con-Y at the 2nd generation, and labeled as Con-O at the 9th generation, and the drug administration treatment groups were given until the 9th generation, and all the cells were placed under the microscope for observing the morphology of the cells, and the proportion of the SA-β-gal+ cells was counted. The levels of the DNA damage marker γ-H2AX and the heterochromatin modification H3K9me3 after TJ01-013 treatment were detected by immunofluorescence technique (procedure described previously).

[3] = vs UUO+Vehicle, western blot, FIG. 31

SMILES: O=C(O)C[S+]([O-])c1cc(NS(=O)(=O)c2ccc(Br)cc2)c2ccccc2c1O (stereo not shown) [I-1]
- Collagen volume fraction %, renal cortex (Masson) (UUO model mice; 10 mg/kg TJ01-013, no significant effect vs model control 4.67%, FIG. 29): 5.58%
- Collagen volume fraction %, renal cortex (Masson) (UUO model mice; 30 mg/kg TJ01-013, vs model control 4.67%, p<0.05, FIG. 29): 0.61%
- fibrosis in the renal medulla (UUO model mice; FIG. 29): reducing effect on fibrosis
- autophagic vesicles with double-layer or multi-layer membrane structure in the cell (TEM) (UUO model mice; FIG. 32): more autophagic vesicles
- morphology of renal tubular epithelial cells and mitochondria (TEM) (UUO model mice; relative to normal and UUO, FIG. 32): in between the former two
- Col1a1 gene mRNA expression in renal tissue (UUO model mice; vs UUO+Vehicle, FIG. 30): certain tendency to inhibit
- Fn1 gene mRNA expression in renal tissue (UUO model mice; vs UUO+Vehicle, FIG. 30): significantly reduced
- collagen type I (collagen I) protein level in kidney (UUO model mice; [3]): significantly reduced
- fibronectin FN protein level in kidney (UUO model mice; [3]): significantly reduced
- survival rate [1]: 80%
- percentage of SA-β-gal+ cells ([2]; 9th generation, vs Con-O, FIG. 48): significantly decreased
- expression level of heterochromatin-modified H3K9me3 ([2]; Con-O cells, FIG. 50): restored its expression level to some extent
- level of DNA damage marker γ-H2AX ([2]; aged cells, FIG. 49): significantly reduced
